Source: US20250320203A1, “4-(3H-PYRAZOLO[4,3-F]QUINOLIN-7-YL)-N-(2-(DIMETHYLAMINO)ETHYL)BENZAMIDE- OR HYDROXAMIC ACID COMPOUNDS, COMPOSITIONS, AND METHODS OF USE” (Purdue Research Foundation, priority 2022, published 2025)

How the values were obtained:
haspin = biological target: T1, haspin (Homo sapiens, UniProt Q8TF76); experiment: ADP Glo Kinase Assay, haspin, 50 nM inhibitor; format: biochemical; conditions: 50 nM inhibitor conc.; means of triplicates; read-out: Percent Inhibition (%) Haspin
T1 sequence (Q8TF76 1-798): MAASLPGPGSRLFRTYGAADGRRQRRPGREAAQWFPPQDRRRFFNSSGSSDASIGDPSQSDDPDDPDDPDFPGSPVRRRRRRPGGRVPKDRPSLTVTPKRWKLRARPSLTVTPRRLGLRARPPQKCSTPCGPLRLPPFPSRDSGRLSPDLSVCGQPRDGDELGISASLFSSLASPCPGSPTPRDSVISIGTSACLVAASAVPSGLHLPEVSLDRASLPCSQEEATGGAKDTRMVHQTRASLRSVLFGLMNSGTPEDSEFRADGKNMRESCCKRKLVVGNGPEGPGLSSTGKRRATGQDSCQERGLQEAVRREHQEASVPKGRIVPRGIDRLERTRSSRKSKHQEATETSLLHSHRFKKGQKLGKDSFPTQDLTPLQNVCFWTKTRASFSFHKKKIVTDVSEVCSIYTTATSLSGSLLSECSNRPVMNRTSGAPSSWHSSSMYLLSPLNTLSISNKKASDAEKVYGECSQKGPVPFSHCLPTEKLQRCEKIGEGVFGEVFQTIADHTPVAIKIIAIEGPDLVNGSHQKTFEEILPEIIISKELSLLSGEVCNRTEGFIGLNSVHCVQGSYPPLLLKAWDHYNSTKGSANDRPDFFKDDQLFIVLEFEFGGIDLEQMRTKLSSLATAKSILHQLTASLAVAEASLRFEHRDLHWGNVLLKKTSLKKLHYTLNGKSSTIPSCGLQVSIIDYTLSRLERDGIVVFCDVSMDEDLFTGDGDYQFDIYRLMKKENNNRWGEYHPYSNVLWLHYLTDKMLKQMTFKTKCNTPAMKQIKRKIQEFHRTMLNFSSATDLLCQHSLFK
Description: (§1) With the amide kinase inhibitor library established, kinase inhibition and AML cell line (Molm-14, which harbors FLT3-ITD) growth inhibition were analyzed (Table 1). More specifically, Haspin and FLT3 inhibition were evaluated in-house via ADP Glo Kinase Assay (Promega, Madison, WI). […] Values reported are means of triplicates.
(§2) Briefly, the ADP-Glo Kinase Assay Kit was used to determine inhibition of haspin. Kinase Buffer (SignalChem Cat #K01-09; 25 mM MOPS, pH 7.2, 12.5 mM β-glycerol-phosphate, 25 mM MgCl2, 2 mM EDTA) was supplemented with dithiothreitol (DTT) (0.2 mM) and bovine serum albumin (BSA) (40 μg/mL) immediately prior to use. Reaction volumes of 5 μL containing 9 ng/μL kinase, 10 μM ATP, 50 nM inhibitor, and the appropriate peptide substrate (20 μM) were incubated for 3 hours, and then quenched with an equal volume (5 μL) of GLO reagent. After 40 minutes, 10 μL DET reagent was added and incubated for 1 hour before visualization on a Cytation™ 5 Cell Imaging Multi-Mode Reader (BioTek).

Molm-14 cells (FLT3-ITD) = experiment: AML cell line growth inhibition (CellTiter-Blue), 50 nM; format: cell-based; conditions: Homo sapiens, 50 nM inhibitor conc., means of triplicates, read-out: Percent Inhibition (%) Molm-14 growth
Description: as §1
More specifically, cells were cultured to confluence in RPMI medium supplemented with 10% fetal bovine serum and 1× Penicillin-Streptomycin (Gibco™). Cells were plated at 5,000 cells/well in 96 well plates. After 24-hour incubation at 37° C. in a 5% CO2 incubator, compounds diluted in the same media were added to the indicated final concentration and allowed to incubate at 37° C. in a 5% CO2 incubator for 72 hours. Viability was determined using CellTiter-Blue® Cell Viability Assay (Promega, Madison, WI) with absorbance readings at 570 nm performed on a Cytation™ 5 Cell Imaging Multi-Mode Reader (BioTek) 3 hours after addition. Appropriate vehicle and cell-free controls were included. GI50 readings were confirmed by two scientists on two separate days.

FLT3 = biological target: T2, FLT3 (Homo sapiens, UniProt P36888); experiment: ADP Glo Kinase Assay, FLT3, 50 nM inhibitor; format: biochemical; conditions: 50 nM inhibitor conc.; means of triplicates; read-out: Percent Inhibition (%) FLT3
T2 sequence (P36888 27-993): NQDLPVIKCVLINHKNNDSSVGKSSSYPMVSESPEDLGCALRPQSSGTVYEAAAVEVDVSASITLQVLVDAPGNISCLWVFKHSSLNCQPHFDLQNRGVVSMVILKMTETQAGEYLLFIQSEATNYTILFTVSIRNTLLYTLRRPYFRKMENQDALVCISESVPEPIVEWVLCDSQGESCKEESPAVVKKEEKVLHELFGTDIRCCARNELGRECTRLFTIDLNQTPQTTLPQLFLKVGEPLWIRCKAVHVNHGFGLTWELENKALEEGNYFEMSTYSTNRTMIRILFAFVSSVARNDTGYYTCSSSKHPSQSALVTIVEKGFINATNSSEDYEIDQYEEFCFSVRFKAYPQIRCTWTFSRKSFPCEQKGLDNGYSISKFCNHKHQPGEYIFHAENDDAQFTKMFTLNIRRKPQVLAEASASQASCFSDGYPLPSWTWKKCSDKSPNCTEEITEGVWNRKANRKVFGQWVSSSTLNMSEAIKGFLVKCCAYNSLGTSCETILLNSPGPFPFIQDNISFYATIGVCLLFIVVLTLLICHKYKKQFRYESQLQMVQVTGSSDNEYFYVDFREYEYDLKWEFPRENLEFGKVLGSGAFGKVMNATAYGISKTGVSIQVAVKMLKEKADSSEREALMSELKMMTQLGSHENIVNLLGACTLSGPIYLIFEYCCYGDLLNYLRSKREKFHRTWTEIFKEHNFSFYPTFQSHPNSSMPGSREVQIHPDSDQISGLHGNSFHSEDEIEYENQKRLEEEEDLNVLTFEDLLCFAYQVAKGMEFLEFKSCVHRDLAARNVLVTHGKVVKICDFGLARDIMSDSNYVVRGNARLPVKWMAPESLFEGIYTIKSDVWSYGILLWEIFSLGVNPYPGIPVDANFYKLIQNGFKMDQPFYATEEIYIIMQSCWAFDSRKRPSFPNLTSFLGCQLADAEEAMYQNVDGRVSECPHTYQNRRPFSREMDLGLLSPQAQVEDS
Description: as §1, §2

CDK12/CyclinK = CDK12/CyclinK (Homo sapiens, UniProt Q9NYV4); experiment: CDK12/CyclinK inhibition (IC50); format: biochemical
CDK2 = CDK2 (Homo sapiens, UniProt P24941); experiment: CDK2 inhibition (IC50); format: biochemical

CDK12/CyclinK, sequence (Q9NYV4 whole entry): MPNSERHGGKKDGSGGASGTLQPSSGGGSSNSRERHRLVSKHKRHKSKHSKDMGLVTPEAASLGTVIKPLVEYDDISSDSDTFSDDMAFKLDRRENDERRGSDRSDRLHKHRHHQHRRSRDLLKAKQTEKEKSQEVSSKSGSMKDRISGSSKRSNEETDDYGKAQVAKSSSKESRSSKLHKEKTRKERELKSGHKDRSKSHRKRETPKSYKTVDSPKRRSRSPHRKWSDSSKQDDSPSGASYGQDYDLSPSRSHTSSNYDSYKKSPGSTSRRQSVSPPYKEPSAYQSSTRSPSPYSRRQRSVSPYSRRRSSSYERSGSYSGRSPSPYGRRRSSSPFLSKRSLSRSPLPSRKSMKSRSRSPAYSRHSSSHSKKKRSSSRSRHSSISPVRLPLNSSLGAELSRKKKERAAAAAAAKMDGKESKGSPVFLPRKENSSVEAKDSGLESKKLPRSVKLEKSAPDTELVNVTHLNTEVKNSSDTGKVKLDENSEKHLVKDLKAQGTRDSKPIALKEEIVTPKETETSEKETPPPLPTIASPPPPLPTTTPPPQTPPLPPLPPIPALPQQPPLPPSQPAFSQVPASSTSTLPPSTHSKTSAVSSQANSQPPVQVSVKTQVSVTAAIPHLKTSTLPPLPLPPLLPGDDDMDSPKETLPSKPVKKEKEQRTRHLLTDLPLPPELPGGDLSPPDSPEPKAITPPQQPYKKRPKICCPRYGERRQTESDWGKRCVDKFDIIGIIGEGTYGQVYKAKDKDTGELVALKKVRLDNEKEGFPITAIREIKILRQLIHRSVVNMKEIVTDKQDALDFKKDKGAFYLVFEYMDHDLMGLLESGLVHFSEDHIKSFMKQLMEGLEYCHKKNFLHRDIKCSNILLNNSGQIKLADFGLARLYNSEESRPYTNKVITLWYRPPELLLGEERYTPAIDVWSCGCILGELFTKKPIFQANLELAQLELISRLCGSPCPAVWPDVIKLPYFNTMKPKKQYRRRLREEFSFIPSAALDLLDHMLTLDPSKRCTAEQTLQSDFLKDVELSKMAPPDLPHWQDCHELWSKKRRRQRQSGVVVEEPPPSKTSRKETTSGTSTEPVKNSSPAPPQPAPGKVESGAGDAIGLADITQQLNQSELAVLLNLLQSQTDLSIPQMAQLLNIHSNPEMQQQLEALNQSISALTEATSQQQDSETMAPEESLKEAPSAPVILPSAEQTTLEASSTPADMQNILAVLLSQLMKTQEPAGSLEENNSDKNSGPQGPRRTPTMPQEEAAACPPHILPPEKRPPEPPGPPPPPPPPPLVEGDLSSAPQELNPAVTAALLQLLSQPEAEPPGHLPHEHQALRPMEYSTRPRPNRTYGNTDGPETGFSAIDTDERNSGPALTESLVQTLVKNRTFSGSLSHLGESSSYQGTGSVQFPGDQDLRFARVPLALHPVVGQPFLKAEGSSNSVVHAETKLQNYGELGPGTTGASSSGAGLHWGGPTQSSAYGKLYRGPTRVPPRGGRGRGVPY
CDK12/CyclinK, sequence (O75909 whole entry partner): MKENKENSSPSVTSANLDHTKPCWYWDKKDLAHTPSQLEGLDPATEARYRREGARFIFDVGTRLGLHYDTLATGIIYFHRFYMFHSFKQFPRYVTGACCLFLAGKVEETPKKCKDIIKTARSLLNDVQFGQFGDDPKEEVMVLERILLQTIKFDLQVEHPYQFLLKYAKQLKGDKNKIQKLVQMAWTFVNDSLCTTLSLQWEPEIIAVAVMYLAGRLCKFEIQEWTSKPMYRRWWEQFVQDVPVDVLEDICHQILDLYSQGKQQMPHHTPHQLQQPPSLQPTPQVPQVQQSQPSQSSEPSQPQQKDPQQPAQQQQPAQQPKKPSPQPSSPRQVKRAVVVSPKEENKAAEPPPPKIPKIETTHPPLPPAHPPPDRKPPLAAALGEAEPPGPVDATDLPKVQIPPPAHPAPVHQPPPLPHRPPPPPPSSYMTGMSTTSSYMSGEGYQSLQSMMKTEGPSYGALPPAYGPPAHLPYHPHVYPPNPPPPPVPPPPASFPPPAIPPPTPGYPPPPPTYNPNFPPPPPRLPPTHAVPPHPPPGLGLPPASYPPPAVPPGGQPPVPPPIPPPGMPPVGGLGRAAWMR

SMILES	inhibition at 0.05 µM (haspin)	inhibition at 0.05 µM (FLT3)	IC50 (CDK12/CyclinK)	IC50 (CDK2)	inhibition at 0.05 µM (Molm-14 cells (FLT3-ITD))
O=C(NCc1ncc[nH]1)c1ccc(-c2nc3ccc4[nH]ncc4c3c3c2CCCC3)cc1F [Compound 11, N-((1H-imidazol-2-yl)methyl)-2-fluoro-4-(8,9,10,11-tetrahydro-3H-pyrazolo[4,3-a]phenanthridin-7-yl)benzamide]	76%	85%	–	–	80%
O=C(NCc1cc[nH]c1)c1ccc(-c2nc3ccc4[nH]ncc4c3c3c2CCCC3)cc1 [Compound 12, N-((1H-pyrrol-3-yl)methyl)-4-(8,9,10,11-tetrahydro-3H-pyrazolo[4,3-a]phenanthridin-7-yl)benzamide]	41%	46%	–	–	39%
O=C(NCc1nccs1)c1ccc(-c2nc3ccc4[nH]ncc4c3c3c2CCCC3)cc1 [Compound 13, 4-(8,9,10,11-tetrahydro-3HI-pyrazolo[4,3-a]phenanthridin-7-yl)-N-(thiazol-2-ylmethyl)benzamide]	68%	53%	–	–	55%
Cn1ccnc1CNC(=O)c1ccc(-c2nc3ccc4[nH]ncc4c3c3c2CCCC3)cc1 [Compound 7, N-((1-methyl-1H-imidazol-2-yl)methyl)-4-(8,9,10,11-tetrahydro-3H-pyrazolo[4,3-a]phenanthridin-7-yl)benzamide]	26%	14%	–	–	21%
O=C(NCCc1ncc[nH]1)c1ccc(-c2nc3ccc4[nH]ncc4c3c3c2CCCC3)cc1 [Compound 15, N-(2-(1H-imidazol-2-yl)ethyl)-4-(8,9,10,11-tetrahydro-3H-pyrazolo[4,3-a]phenanthridin-7-yl)benzamide]	78%	71%	–	–	73%
O=C(NCc1c[nH]cn1)c1ccc(-c2nc3ccc4[nH]ncc4c3c3c2CCCC3)cc1 [Compound 4, N-((1H-imidazol-4-yl)methyl)-4-(8,9,10,11-tetrahydro-3H-pyrazolo[4,3-a]phenanthridin-7-yl)benzamide]	54%	49%	–	–	67%
O=C(NCc1nnn[nH]1)c1ccc(-c2nc3ccc4[nH]ncc4c3c3c2CCCC3)cc1 [Compound 10, N-((1H-tetrazol-5-yl)methyl)-4-(8,9,10,11-tetrahydro-3H-pyrazolo[4,3-a]phenanthridin-7-yl)benzamide]	57%	51%	–	–	50%
O=C(NCc1ncc[nH]1)c1ccc(-c2nc3ccc4[nH]ncc4c3c3c2CCCC3)c(F)c1 [Compound 9, N-((1H-imidazol-2-yl)methyl)-3-fluoro-4-(8,9,10,11-tetrahydro-3H-pyrazolo[4,3-a]phenanthridin-7-yl)benzamide]	53%	88%	–	–	87%
Cc1c[nH]c(CNC(=O)c2ccc(-c3nc4ccc5[nH]ncc5c4c4c3CCCC4)cc2)n1 [Compound 14, N-((4-methyl-1H-imidazol-2-yl)methyl)-4-(8,9,10,11-tetrahydro-3H-pyrazolo[4,3-a]phenanthridin-7-yl)benzamide]	97%	94%	–	–	–
O=C(NCc1ncn[nH]1)c1ccc(-c2nc3ccc4[nH]ncc4c3c3c2CCCC3)cc1 [Compound 8, N-((4H-1,2,4-triazol-3-yl)methyl)-4-(8,9,10,11-tetrahydro-3H-pyrazolo[4,3-a]phenanthridin-7-yl)benzamide]	57%	49%	–	–	48%
O=C(NCc1ncc[nH]1)c1ccc(-c2nc3ccc4[nH]ncc4c3c3c2CCCC3)cc1 [Compound 6, N-((1HI-imidazol-2-yl)methyl)-4-(8,9,10,11-tetrahydro-3H-pyrazolo[4,3-a]phenanthridin-7-yl)benzamide]	77%	76%	–	–	84%
O=C(NCCn1ccnc1)c1ccc(-c2nc3ccc4[nH]ncc4c3c3c2CCCC3)cc1 [Compound 5, N-(2-(1H-imidazol-1-yl)ethyl)-4-(8,9,10,11-tetrahydro-3H-pyrazolo[4,3-a]phenanthridin-7-yl)benzamide]	33%	31%	–	–	42%

The next lines start with results.

inhibition at 0.05 µM (haspin)	inhibition at 0.05 µM (FLT3)	IC50 (CDK12/CyclinK)	IC50 (CDK2)	SMILES	inhibition at 0.05 µM (Molm-14 cells (FLT3-ITD))
–	–	0.06 µM	–	CN(C)C/C=C/C(=O)Nc1ccc(C(=O)N2CCC[C@@H](Nc3ncc(Cl)c(-c4c[nH]c5ccccc45)n3)C2)cc1 [THZ531, reference compound]	–
–	–	–	0.185 µM	NC(=O)c1ccc(-c2nc3ccc4[nH]ncc4c3c3c2CCCC3)cc1 [HSD1217, reference compound]	–
–	–	0.027 µM	0.007 µM	CN(C)CCNC(=O)c1ccc(-c2nc3ccc4[nH]ncc4c3c3c2CCCC3)cc1 [Compound HSH2177, N-(2-(dimethylamino)ethyl)-4-(8,9,10,11-tetrahydro-3H-pyrazolo[4,3-a]phenanthridin-7-yl)benzamide]	–
–	–	0.009 µM	0.004 µM	O=C(NO)c1ccc(-c2nc3ccc4[nH]ncc4c3c3c2CCCC3)cc1 [Compound HSD1993, N-hydroxy-4-(8,9,10,11-tetrahydro-3H-pyrazolo[4,3-a]phenanthridin-7-yl)benzamide]	–
39%	81%	–	–	FC(F)(F)c1n[nH]cc1-c1nc2ccc3[nH]ncc3c2c2c1CCCC2 [HSD1169, reference compound]	90%
